Data set [1] has as its system immunologically naïve mice. The data set can be described thus: Studies in immunologically naive mice: 6 monthly IV administrations. The class given is in vivo, BALB/c mice. Conditions: 1 mg/kg bw IV, 6 monthly administrations. The protocol: BALB/c mice were adapted for at least one week to start experiments at the age of 12 weeks. Animals were kept as described before. This study was approved by the local animal welfare authority and Ethics committee at the Regierung von Oberbayern (Government of Upper Bavaria) in Munich, Germany (no. 55.2-1-54-2532.0-32-15), and carried out in accordance to the European Commission guidelines.
Peptides (1 mg/kg body weight) or NaCl vehicle control were given by IV injection into a tail vein of these naïve mice (n=6 per group), and then continued at 4-weekly intervals for 6 months, as described before for the therapeutic study in immunized mice. Serum samples were taken at identical intervals.

In data set [2] the test system is TSHR-immunized diseased mice. Conditions: previous study (8); cited from earlier work.

Peptide text beside a SMILES is read from it.

`CC(C)C[C@@H]1NC(=O)[C@H](Cc2ccc(O)cc2)NC(=O)[C@H](C(C)C)NC(=O)[C@H](C)NC(=O)[C@H](CC(=O)O)NC(=O)[C@H](CC(C)C)NC(=O)[C@H](CCCCN)NC(=O)[C@H]([C@@H](C)O)NC(=O)CNC(=O)[C@H](CCCCN)NC(=O)[C@H](CC(N)=O)NC(=O)[C@H](CCCCN)NC(=O)[C@H](CC(N)=O)NC1=O` [peptide 836 13mer, TKLDAVYLNKNKG] (HELM PEPTIDE1{A.V.Y.L.N.K.N.K.G.T.K.L.D}$PEPTIDE1,PEPTIDE1,1:R1-13:R2$$$V2.0): the “Tolerability / clinical findings” value in data set [1] was “no pathological clinical findings were observed”.

For the molecule “SPPCECHQEEDFRVTCKDIQRIPS (cyclic; Amino acid sequence derived from human thyrotropin-TSH receptor (TSHR)) [peptide 829]”, the “Improvement of disease parameters” value in data set [2] is reported as “small, non-significant trends to improve disease parameters”.

Turning to `CC(C)[C@@H]1NC(=O)[C@H](CCCNC(=N)N)NC(=O)[C@H](Cc2ccccc2)NC(=O)[C@H](CC(=O)O)NC(=O)[C@H](CCC(=O)O)NC(=O)[C@H](CCC(=O)O)NC(=O)[C@H](CCC(N)=O)NC(=O)[C@H](Cc2c[nH]cn2)NC(=O)[C@@H](N)CSSC[C@@H](C(=O)O)NC(=O)[C@H]([C@@H](C)O)NC1=O` [peptide 19, CHQEEDFRVTC] (HELM PEPTIDE1{C.H.Q.E.E.D.F.R.V.T.C}$PEPTIDE1,PEPTIDE1,1:R3-11:R3$$$V2.0), the “Tolerability / clinical findings” value in data set [1] is recorded as “no pathological clinical findings were observed”.

The values above are taken from patent US12060409B2, “Short cyclic peptides for the treatment of Graves' disease” (priority 2018, dated 2024).
